Laboratory results reported in PMC10237672, “Design and synthesis of novel anti-urease imidazothiazole derivatives with promising antibacterial activity against Helicobacter pylori” (PLOS ONE, 2023).
Converted amounts (≈) assume the structure as drawn. “Also recorded” adds a separate entry of the source. Like-named read-outs stand apart in the source and are kept apart here.

What was measured:
E. coli [1] = assay: MIC against E. coli (urease negative), agar dilution method; format: cell-based, Escherichia coli; conditions: for MIC: Escherichia coli, ATCC25922, read-out: MIC ± SEM against E. coli (Urease-)
Method: (§1) The H. pylori reference strain ATCC 43504 (DSM 21031) was purchased from the German collection of microorganisms and cell cultures, GmbH (DSMZ; Germany). H. pylori was grown on Brucella agar plates (Sigma, USA) supplemented with 10% horse serum (Sigma, USA) for 72 h at 37 °C under 98% humidity and microaerophilic conditions (5% O2, 10% CO2, and 85% N2) using microaerophilic CampyGen 2.5 L pack (Oxoid, thermo scientific, UK) and anaerobic jar (Biomerieux, France). H. pylori culture was inspected after 3 to 5 days. The E. coli reference strain ATCC 25922 was purchased from the American Type Culture Collection (ATCC, Manassas, VA, USA). E. coli was grown on nutrient agar plates (Sigma, USA) for 24 h at 37 °C under aerobic conditions. Bacterial load was adjusted using a DensiCHEK PLUS device (Biomerieux, France). A regular gram stain (Biomerieux, France) was performed to confirm the identity and the morphology of H. pylori and E. coli as well as to confirm the absence of any contamination. Furthermore, a regular spotting checkup was also performed behind the micro broth dilution testing followed by a gram stain to confirm the identity of the bacteria and the absence of any potential contamination.
(§2) For MIC, the agar dilution method was performed as per the CLSI guidelines. 5 μL of the H. pylori suspension (2.0 McFarland) was plated on the Mueller–Hinton agar (Sigma, USA) supplemented with 10% horse serum including various concentrations of compounds 1a-1j and 2a-2j (0.8 mM, 0.4 mM, 0.2 mM, 0.1 mM, 0.05 mM, 0.025 mM, 0.0125 mM, and 0.006 mM). […] For the micro broth dilution test, compounds 1a-1j and 2a-2j were prepared by 2-fold serial dilution from a concentration of 0.8 mM to 0.006 mM and added to an equal H. pylori suspension of 1.0 McFarland in Mueller–Hinton broth (Sigma, USA) for 72 h. Final optical density of the bacterial suspension was measured by spectrophotometry using Synergy H1 microplate reader (BioTek, USA) at 600 nm. The half maximal inhibitory concentration (IC50) was calculated using Graph Pad Prism 8.02 for windows (Graph Pad Inc., La Jolla, CA, USA). All the tested derivatives compounds were dissolved in dimethyl sulfoxide (DMSO, Sigma, USA). […] Amoxicillin (Sigma, USA) (10 μg/mL and 0.007 μg/mL) and (12 μg/mL and 3 μg/mL) was used as a control antibiotic to confirm the agar dilution protocol for H. pylori and E. coli, respectively. Acetohydroxamic acid (AHA, Sigma, CAS number: 546-88-3) was used as a positive anti-urease control. All antimicrobial susceptibility experiments were repeated twice.

AGS gastric cells = assay: Cytotoxicity MTT assay against AGS gastric cells; format: cell-based, Human; conditions: for IC50: MTT, 48 h treatment, read-out: IC50 value against AGS cells ± SEM; for Selectivity index (SI): toward H. pylori vis-à-vis AGS cells (IC50 values)
Method: Human gastric adenocarcinoma AGS cells (ATCC CRL-1739) were purchased from the German Cell Lines Service (CLS, Germany) and cultured in RPMI-1640 medium (Sigma, USA) supplemented with 10% fetal bovine serum (FBS, Sigma, USA) and streptomycin-penicillin (100 μg/mL and 100 IU/mL) (Sigma, USA). Cells were incubated at 37 °C in a humidified atmosphere with 5% CO2 until 80–90% confluency.
The (4, 5-dimethythiazol-2-yl) -2, 5-diphenyltetrazolium bromide (MTT, Sigma, USA) assay was used to assess the cytotoxicity of the five most significant compounds. AGS cells (5×10^3/well) were seeded in 96-well plates for 24 h and treated with various concentrations (0.8 mM, 0.4 mM, 0.2 mM, 0.1 mM, 0.05 mM, 0.025 mM, 0.0125 mM, and 0.006 mM) of the five most significant anti-urease imidazothiazole derivatives compounds (compound 1a, 1d, 1h, 2d, and 2f). After 48 h treatment, 100 μL of MTT solution (50 μg/mL) was added to each well, and the cells were incubated for additional 2 h at 37 °C. The solubilization of MTT crystals was accomplished by adding 100 μL of DMSO followed by 10 min of incubation. The plates were shaken for 5 min to dissolve the MTT formazan crystals. The optical density of each well was determined using a Synergy H1 microplate reader (Biotek, USA) at a wavelength of 570 nm. The IC50 of the tested compounds was calculated using GraphPad Prism 8.0.2 for windows (GraphPad Inc., La Jolla, CA, USA) from two repeated experiments.

H. pylori [2] = assay: IC50 against H. pylori, micro broth dilution test; format: cell-based, Helicobacter pylori; conditions: H. pylori ATCC 43504, micro broth dilution, 72 h, OD 600 nm, read-out: IC50 value against H. pylori ± SEM
E. coli [3] = assay: IC50 against E. coli (urease negative), micro broth dilution method; format: cell-based, Escherichia coli; conditions: E. coli ATCC 25922, micro broth dilution
Method: as §1, §2

H. pylori [4] = assay: MIC against H. pylori, agar dilution method; format: cell-based, Helicobacter pylori; conditions: for MIC: Helicobacter pylori, ATCC43504, read-out: MIC value against H. pylori ± SEM; for antibacterial activity against H. pylori (in words): compared within the series and with acetohydroxamic acid
Jack bean urease = biological target: T1, Jack bean urease (Canavalia ensiformis, UniProt P07374); assay: biochemical; format: biochemical
T1 construct: purchased Sigma Aldrich
Method: Reaction mixture comprising 40 μL of buffer (K2HPO4: 10 mmol/L, urea: 100 mmol/L, […]: 10 mmol/L, EDTA: 1 /L mmol, pH = 8.2) and 5 U/mL enzyme (10 μL) were pre-incubated with 10 μL of synthesized compounds (1 mM) and substrate urea (1 mM) were incubated at room temperature in 96 well plate for half an hour. After the incubation at room temperature, absorbance was taken at specific wavelength (630 nm) employing a microplate reader (Bio-Tek, USA) with R1 and R2 reagents in each well. The reactions were measured in triplicate fashion. To calculate the inhibition percentage following equation was used.
Percentage inhibition = 100 –[tested compound/control compound] × 100.

Caco-2 A-B permeability = format: in vitro ADME; conditions: human, pH 6.5–7.4, test concentration = MIC against H. pylori (19-50 μM), reference drugs 10 μM
Method: (§3) The apparent permeability coefficient (Papp) of the test compound was calculated as follows: Papp(cm/s)=VR*CR,end/Δt*1/A*(CD,mid‐CR,mid) where VR is the volume of the receiver chamber. CR,end is the concentration of the test compound in the receiver chamber at the end time point, Δt is the incubation time and A is the surface area of the cell monolayer. CD,mid is the calculated mid-point concentration of the test compound in the donor side, which is the mean value of the donor concentration at time 0 minute and the donor concentration at the end time point. CR,mid is the mid-point concentration of the test compound in the receiver side, which is one half of the receiver concentration at the end time point. Concentrations of the test compound were expressed as peak areas of the test compound.
(§4) The recovery of the test compound was calculated as follows: Recovery(%)=VD*CD,end+VR*CR,end/VD*CD0*100 where VD and VR are the volumes of the donor and receiver chambers, respectively. CD,end is the concentration of the test compound in the donor sample at the end time point. CR,end is the concentration of the test compound in the receiver sample at the end time point. CD0 is the concentration of the test compound in the donor sample at time zero. Concentrations of the test compound are expressed as peak areas of the test compound.
(§5) Fluorescein was used as the cell monolayer integrity marker. Fluorescein permeability assessment (in the A-B direction at pH 7.4 on both sides) was executed after the permeability assay for the test compound.

Caco-2 cells = assay: Caco-2 A-B permeability; format: in vitro ADME
Method: as §3, §4, §5

[5] = E. coli ATCC 25922, agar dilution
[6] = H. pylori ATCC 43504, agar dilution

T1 sequence (P07374 whole entry, looked up): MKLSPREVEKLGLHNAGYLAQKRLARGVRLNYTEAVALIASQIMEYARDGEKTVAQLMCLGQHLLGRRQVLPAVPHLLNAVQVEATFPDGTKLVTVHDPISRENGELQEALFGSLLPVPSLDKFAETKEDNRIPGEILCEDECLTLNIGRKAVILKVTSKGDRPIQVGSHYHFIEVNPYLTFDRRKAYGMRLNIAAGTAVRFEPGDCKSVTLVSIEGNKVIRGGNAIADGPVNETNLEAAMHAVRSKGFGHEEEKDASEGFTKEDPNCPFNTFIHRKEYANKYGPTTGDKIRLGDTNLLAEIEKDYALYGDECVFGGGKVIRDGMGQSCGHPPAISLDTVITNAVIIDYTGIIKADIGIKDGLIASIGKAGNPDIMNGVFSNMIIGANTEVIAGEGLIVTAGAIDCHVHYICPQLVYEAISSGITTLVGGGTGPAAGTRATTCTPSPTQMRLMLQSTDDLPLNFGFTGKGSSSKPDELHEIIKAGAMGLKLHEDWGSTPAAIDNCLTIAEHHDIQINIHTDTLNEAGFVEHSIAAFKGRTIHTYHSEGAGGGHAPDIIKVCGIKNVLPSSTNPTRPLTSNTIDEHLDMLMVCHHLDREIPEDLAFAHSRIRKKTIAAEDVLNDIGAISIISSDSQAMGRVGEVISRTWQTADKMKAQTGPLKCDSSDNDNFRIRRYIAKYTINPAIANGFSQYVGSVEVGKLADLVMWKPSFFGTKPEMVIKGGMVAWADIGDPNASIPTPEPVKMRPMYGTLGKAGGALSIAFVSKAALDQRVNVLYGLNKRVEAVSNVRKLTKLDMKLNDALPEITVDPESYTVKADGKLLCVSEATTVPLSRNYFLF

| Structure (SMILES) | MIC ± SEM against E. coli (Urease-) (E. coli [1]; [5]) [µM] | IC50 (AGS gastric cells) [µM] | IC50 (H. pylori [2]) [µM] | IC50 (E. coli [3]; read-out: IC50 ± SEM against E. coli (Urease-)) [µM] | MIC value against H. pylori ± SEM (H. pylori [4]; [6]) [µM] | MIC (E. coli [1]; [5]) [µM] | IC50 (Jack bean urease) [µM] | IC50 (AGS gastric cells; Homo sapiens, AGS) [µM] | Selectivity index (SI) (AGS gastric cells) | IC50 (H. pylori [2]; Helicobacter pylori, ATCC43504) [µM] | melting point [°C] | Papp (Caco-2 A-B permeability) [×10⁻⁶ cm/s] | recovery (Caco-2 A-B permeability) [%] | IC50 ± SEM against E. coli (Urease-) (E. coli [3]) | MIC (H. pylori [4]; [6]) [µM] | antibacterial activity against H. pylori (in words) (H. pylori [4]) | activity against urease-negative E. coli (in words) (E. coli [1]; E. coli, up to 0.8 mM) | Caco-2 permeability (in words) (Caco-2 cells) |
| --- | --- | --- | --- | --- | --- | --- | --- | --- | --- | --- | --- | --- | --- | --- | --- | --- | --- | --- |
| CC(=O)NO [Acetohydroxamic acid (AHA), Acetohydroxamic acid, reference compound] | 100000 | 5900 ± 300 | 7380 ± 320 | 39900 ± 1780 | 12500 ± 0 (≈ 938 µg/mL) | – | – | – | – | – | – | – | – | – | – | – | – | – |
| CS(=O)(=O)Oc1cccc(-c2nc3sccn3c2-c2ccccc2)c1 [Compound 1a, 3-(5-Phenylimidazo[2,1-b]thiazol-6-yl)phenyl methanesulfonate] | – | – | – | – | – | > 800 | 4.1 ± 0.03 | 71 ± 17 | 3.09 | 23 ± 9 | 105 to 108 | 18.6 ± 0.79 | 34.4 | No effect | 19 ± 4 | strongest antibacterial activity | – | – |
| O=S(=O)(Oc1cccc(-c2nc3sccn3c2-c2ccccc2)c1)C1CCCCC1 [Compound 1d, 3-(5-Phenylimidazo[2,1-b]thiazol-6-yl)phenyl cyclohexane-1-sulfonate] | – | – | – | – | – | > 800 | 3.09 ± 0.07 | 121 ± 44 | 6.05 | 20 ± 3 | 118 to 120 | 0.04 ± 0.01 | 63 | No effect | 31 ± 11 (≈ 13.6 µg/mL) | strongest antibacterial activity | did not show activity | lowest permeability; also recorded: poor Caco-2 A-B permeability; also recorded: low permeability |
| NS(=O)(=O)Oc1cccc(-c2nc3sccn3c2-c2ccccc2)c1 [Compound 1h, 3-(5-Phenylimidazo[2,1-b]thiazol-6-yl)phenyl sulfamate] | – | – | – | – | – | > 800 | 2.96 ± 0.02 | 145 ± 45 | 5.18 | 28 ± 1 | 173 to 175 | 16.9 ± 0.87 | 32.6 | No effect | 50 (≈ 18.6 µg/mL) | strongest antibacterial activity | – | – |
| CS(=O)(=O)c1cccc(-c2c(-c3cccc(OS(=O)(=O)C4CCCCC4)c3)nc3sccn23)c1 [Compound 2d, 3-(5-(3-(Methylsulfonyl)phenyl)imidazo[2,1-b]thiazol-6-yl)phenyl cyclohexane-1-sulfonate] | – | – | – | – | – | > 800 | 4.46 ± 0.12 | 30 ± 11 | 2.0 | 15 ± 3 | 142 to 144 | 0.07 ± 0.02 | 73.5 | No effect | 22 ± 4 (≈ 11.4 µg/mL) | strongest antibacterial activity | – | lowest permeability; also recorded: low permeability |
| CS(=O)(=O)c1cccc(-c2c(-c3cccc(OS(=O)(=O)c4ccc(F)cc4)c3)nc3sccn23)c1 [Compound 2f, 3-(5-(3-(Methylsulfonyl)phenyl)imidazo[2,1-b]thiazol-6-yl)phenyl 4-fluorobenzenesulfonate] | – | – | – | – | – | > 800 | 7.19 ± 0.09 | 45 ± 5 | 1.95 | 23 ± 8 | – | 1.98 ± 0.23 | 71.8 | No effect | 38 ± 13 (≈ 20.1 µg/mL) | strongest antibacterial activity | – | lowest permeability; also recorded: low permeability |
